Experimental data: patent US4464354A, “(3,4-c)-Pyrido psoralens, process of preparation, application in cosmetology and therapeutics, and cosmetological and pharmaceutical composition with them” (Institut National de la Sante et de la Recherche Medicale, priority 1982, dated 1984)
“Also recorded” adds a separate entry of the source. Like-named read-outs stand apart in the source and are kept apart here.

Assays:
psoriasis = details: human, in vivo; cited from earlier work
normal human skin = assay: erythema test on normal human skin (forearm); format: in vivo; details: for erythematogenicity (conclusion): in vivo
Experimental: The clinical and therapeutic activity of compounds 1a and 1b has been also measured on human skin. 10 mg of compounds 1a and 1b were diluted in 2 g of a purified lanolin commercially available under the name ROC hydrocerine which was made liquid by heating to 60° C. This local preparation was first tested on normal human skin (of the forearm). An amount of 10 micrograms/cm2 of products 1a and 1b was applied to a circular cutaneous surface 3 cm in diameter. The two products were left on the skin for 2 hours to insure a sufficient cutaneous penetration. […] The same experiment was repeated a second time with irradiation of 20 J/cm2 through a glass plate in order to filter out all the ultraviolet B radiation. […] This erythema, slightly apparent, continued for 18 days. […] The […] result of the reflective photoplethysmograph were totally identical for products 1a and 1b. […] The […] only appeared in doses of irradiation where are twice that customarily used in a therapeutic treatment.

[1] = mice, after exposure to light in the near ultraviolet range around 365 nm; cited from earlier work
[2] = tested on: Saccharomyces cerevisiae yeast; assay: induction of lethal effects in yeast with 365 nm irradiation (UVA); format: cell-based; details: for photodynamic activity (oxygen dependent) on induction of lethal damages: yeast
Experimental: (§1) This photobiological activity has in effect been defined by the induction of lethal effects, the induction of "small colony" cytoplasmic mutations (damage in the mitochondrial DNA) and the induction of nuclear mutations (reverse and forward). The experiments were conducted in the customary manner in conformity with the following references:
Thus, the dose of UVA must be between 2.5 and 5 times weaker in the case of compounds 1a and 1b than in the case of 8-MOP to attain the same survival rate.

[3] = background statement, cited from earlier work
DNA [4] = details: background statement; cited from earlier work
psoriatic plaque [5] = assay: therapeutic test comparing 8-methoxypsoralen and product 1b; format: in vivo, human; details: 10^-2 M; for deterioration after end of treatment: one patient without further treatment
Text: The concentrations of 8-MOP and product 1b were 10^-2 M in the same excipient as that used in the previous therapeutic test. Both preparations were applied on two rounded zones 3 cm in diameter, located on the same psoriatic plaque and were irradiated according to the same procedure of gradually increasing ultraviolet irradiation until a maximum of 10 J/cm2 per treatment.

[6] = tested on: V79 chinese hamster cells; assay: antiproliferatory effect: inhibition of colony formation of V79 cells; format: cell-based; details: 5×10^-6 M
Experimental: The photobiological activity of the two monofunctional componds 1a and 1b have been studied in mammalian cells in vitro in order to determine their antiproliferatory effect.
A diploid strain of V79 chinese hamster cells were used.
The action of the compounds on cell survival (i.e. the antiproliferatory effect) was determined by measuring their power to inhibit the capacity of cells to form colonies. The technique used is that described by C.

[7] = tested on: DNA of cells of the wild type; assay: direct biochemical verification of cross-linking in DNA of cells treated and irradiated at 365 nm; format: cell-based, yeast; details: for form of DNA after renaturation (cross-links): 10^-5 M, 365 nm, two doses (30% and 5% survival rate)
Text: Indeed, DNA of cells of the wild type were extracted immediately after treatment with products 1a, 1b at a concentration of 10^-5 M and irradiation with two doses of radiation at 365 nm (30% and 5% survival rate). […] If the DNA contains cross-links it renatures itself and is found in the double chain form separable by gradient density from single chain DNA.

synthesis of DNA = assay: photosensitizer effect on DNA synthesis in human fibroblasts; format: cell-based; details: UVA 365 nm
Text: (§2) (F. Bordin, F. Baccichetti and L. Musajo, Experientia 28, 148 (1972)).
(§3) The cells cultivated in Petri dishes having a minimum Eagle medium with 10% embryonic calf serum were marked by precursors which were specific to the exponential phase of growth. The rates of synthesis were estimated by measuring the incorporation of the radioactive precursors in the acid-precipitable material (see S. Nocentini, Biochim. Biophys., Acta 521, 160 (1978)).

mitochondrial DNA = assay: induction of "small colony" cytoplasmic mutations; format: cell-based, Saccharomyces cerevisiae; details: in 10% of the survivors
Experimental: as §1
If the induction of cytoplasmic mutations is considered as a function of the survivors, the compounds 1a and 1b which are monofunctional derivatives of psoralen, show in 10% of the survivors a rate of induction of cytoplasmic mutation greater than 50%.

psoriatic plaque [8] = assay: therapeutic test on psoriatic plaque, products 1a and 1b; format: in vivo, human
Experimental: 10 mg of compounds 1a and 1b were diluted in 2 g of a purified lanolin commercially available under the name ROC hydrocerine which was made liquid by heating to 60° C. Products 1a and 1b have also been tested in the same excipient on a high inflammatory psoriatic plaque. These two products were applied to surfaces having a 3 cm diameter. On a third surface the excipient alone was applied. […] The products and the lanolin alone were applied 2 hours before irradiation. […] This whitening was practically as fast in the zones treated with products 1a and 1b. The zone treated with lanolin alone remained unchanged.

[9] = tested on: Saccharomyces cerevisiae yeast; assay: induction of forward mutations (resistance to canavanine); format: cell-based
Experimental: as §1, with “references: […]” for “references:”

DNA [10] = assay: photoaffinity for DNA in vivo; format: cell-based, yeast
DNA [11] = assay: formation of cross-links in DNA (general statements); format: biochemical; details: from induction of cytoplasmic and nuclear mutations
[12] = tested on: haploid strain of Saccharomyces cerevisiae yeast; assay: induction of nuclear mutations: His+ reversions; format: cell-based; details: 5×10^-6 M, same survivor rate
Experimental: as §1
The induction of nuclear mutations (reversions and "forward" mutations) has been determined according to procedures described in the above-mentioned articles.

yeast mutant pso2 = assay: sensitivity of yeast mutant pso2 versus wild type to photo-addition
[13] = spectroscopic absorption properties; format: physicochemical; details: compared with psoralen
Text: Compounds 1a and 1b have similar spectroscopic properties which differ markedly with respect to those of psoralen.

[14] = mutagenicity (general statements)
normal skin = assay: pigmentogenic properties on normal skin; format: in vivo, human; details: 0.5%
Text: The pigmentogenic properties of products 1a and 1b have been tested on normal skin at a concentration of 0.5%.

synthesis of RNA = assay: photosensitizer effect on RNA synthesis in human fibroblasts; format: cell-based; details: UVA 365 nm
Text: as §2, §3

[15] = 30 micrograms/cm2, by the tenth treatment
[16] = 30 micrograms/cm2, from the fourth treatment
[17] = 10 micrograms/cm2, UVA 20 J/cm2

In the case of `CCOC(=O)c1cc2cc3ccoc3cc2oc1=O` [3-carbethoxypsoralen, reference compound], the “therapeutic activity in patients having psoriasis” value (psoriasis) is listed as “having a therapeutic activity in respect to patients having psoriasis”, the “erythematogenicity (conclusion)” value (normal human skin) is listed as “is not” and the carcinogenicity [1] is listed as “completely safe from this point of view”. For the same compound, the “photodynamic activity (oxygen dependent) on induction of lethal damages” value (“photodynamic activity (oxygen dependent)” for short) [2] was “different”.

For `Cc1cc2c(ccc3c(C)cc(=O)oc32)o1` [4,5'-dimethylangelicine, reference compound], the “photodynamic activity (oxygen dependent)” value [2] was “comparable”.

In the case of `COc1c2ccoc2cc2oc(=O)ccc12` [5-methoxypsoralen], the “mutagenic activity and carcinogenesis in animals” value [3] is listed as “high mutagenic activity and carcinogenesis in animals”, the “mutagenic activity and carcinogenesis in animals” value ([3]; listed as 5-methoxy psoralen) is listed as “mutagenic” and the carcinogenicity [1] is listed as “carcinogenic in mice”. For the same compound, the “capability of forming cross-links in DNA” value (DNA [4]) was “capable of forming cross-links in the DNA”.

In the case of `COc1c2occc2cc2ccc(=O)oc12` [8-methoxypsoralen, reference compound], the “deterioration after end of treatment” value (psoriatic plaque [5]) is listed as “rapid deterioration”, the “mutagenic activity and carcinogenesis in animals” value [3] is listed as “high mutagenic activity and carcinogenesis in animals” and the “LD10 (dose which leaves 10% survive)” value ([6]; UVA) is listed as 3800 J/cm2. For the same compound, the “photodynamic activity (oxygen dependent)” value [2] was “comparable”, the “capability of forming cross-links in DNA” value (DNA [4]) was “capable of forming cross-links in the DNA” and the “form of DNA after renaturation (cross-links)” value [7] was “cross-linked double strand DNA”.

In the case of `Cc1c2occc2cc2c1oc(=O)c1cnccc12` [Compound 1b, Methyl-7-pyrido (3,4-c) furo (3,2-g) coumarin], the “inhibition capacity (DNA) compared with 3-CPs” value (synthesis of DNA) is reported as “much more than 3-CPs”, the “inhibition capacity (DNA) compared with 8-MOP” value (synthesis of DNA) is reported as “slightly more powerful than 8-MOP” and the “rate of induction of cytoplasmic mutation” value (mitochondrial DNA) is reported as “greater than 50%”. The “antipsoriatic action, third patient” value (psoriatic plaque [8]; 30 μg/cm2 two hours before UVA) was “complete whitening of the psoriasis”, the “antipsoriatic action, two of three patients” value (psoriatic plaque [8]; 30 μg/cm2 two hours before UVA) was “moderately better than product 1a” and the “pigmentogenic effect, two of three patients” value (psoriatic plaque [8]; 30 μg/cm2 two hours before UVA) was “more pigmentogenic”. For the same compound, the “antipsoriatic action of product 1b versus 1a (overall)” value (psoriatic plaque [8]; 10 treatments of PUVA, total dose 50 J/cm2) was “antipsoriatic action superior to that of product 1a”, the “erythema or secondary effect during treatments” value (psoriatic plaque [8]; 30 micrograms/cm2) was “no erythema or secondary effect was observed” and the hyperpigmentation (psoriatic plaque [8]; 30 micrograms/cm2) was “hyperpigmentation was found in the two zones, in particular the one treated with product 1b”. For the same compound, the “total UVA dose to complete whitening” value (psoriatic plaque [8]; [15]) was 50 J/cm2, the “whitening of treated zones” value (psoriatic plaque [8]; [15]) was “complete whitening of the zones treated” and the decrease of squamae (psoriatic plaque [8]; [16]) was “slight decrease of the squamae”. For the same compound, the reduction of infiltration (psoriatic plaque [8]; [16]) was “tangible reduction of the infiltration”, the “antipsoriatic activity (conclusion)” value (psoriatic plaque [8]; applied locally) was “good antipsoriatic activity; also recorded: best therapeutic results” and the “deterioration after end of treatment” value (psoriatic plaque [5]) was “practically no deterioration”. For the same compound, the “antipsoriatic effectiveness compared with 8-methoxypsoralen” value (psoriatic plaque [5]; three patients, up to 10 J/cm2 per treatment) was “more effective than 8-methoxypsoralen”, the “forward mutations as a function of surviving fractions compared with 3-CPs, 8-MOP and 4,5',8-TMeP” value [9] was “markedly less mutagenic than 3-CPs and the bifunctional compounds 8-MOP and 4,5', 8-TMeP” and the “forward mutations as a function of UVA doses compared with 3-CPs” value ([9]; 5×10^-6 M versus 3-CPs at 5×10^-5 M) was “comparable to those obtained with 3-CPs at 5×10^-5 M”. The “photoaffinity for DNA in vivo compared with 3-CPs” value (DNA [10]) was “makedly much high than that of monofunctional furocoumarin 3-CPs”, the “photoaffinity for DNA in vivo relative to 8-MOP” value (DNA [10]) was about 20 times and the “photoaffinity in respect to DNA compared with 8-MOP (conclusion)” value (DNA [10]) was “markedly greater than that of 8-MOP”. For the same compound, the “formation of cross-links in the DNA (conclusion)” value (DNA [11]) was “incapable of forming cross-links in the DNA”, the “erythema at 5 J/cm2” value (normal human skin; 10 micrograms/cm2, 2 hours before UVA 5 J/cm2) was “no precocious or delayed erythema was observed” and the duration of erythema (normal human skin; [17]) was 18 days. For the same compound, the “time of appearance of erythema” value (normal human skin; [17]) was 72 h, the “erythema at 20 J/cm2” value (normal human skin; 10 micrograms/cm2, UVA 20 J/cm2 through glass plate) was “slight erythema” and the “desquamation or local pain” value (normal human skin; UVA 20 J/cm2) was “no desquamation or local pain”. For the same compound, the “systolic pulse of the capillaries at erythematic zones (reflective photoplethysmography)” value (normal human skin; UVA 20 J/cm2) was “doubling of the systolic pulse”, the “erythematogenicity (conclusion)” value (normal human skin) was “not erythmatogenic in conditions of irradiation customarily used in human therapy; also recorded: very mildly erythmatogenic” and the “His+ reversions rate compared with 3-CPs” value [12] was “less than that observed after the treatment with 3-CPs”. The “His+ reversions rate compared with 8-MOP and 4,5',8-TMeP” value [12] was “very much less than that observed after treatment with the bifunctional agents 8-MOP and 4,5', 8-TMeP”, the “LD10 (dose which leaves 10% survive)” value ([6]; UVA) was 540 J/cm2 and the “considerable photosensitivity in V79 cells” value ([6]; UVA) was “considerable photosensitivity”. For the same compound, the relative antiproliferatory effect ([6]; UVA) was “markedly more effective than compound 1a; also recorded: compared to 8-MOP, a higher antiproliferatory effect; also recorded: comparable to that of bifunctional furocoumarins”, the “diminution of cell survival in absence of radiation” value ([6]; no radiation) was “no diminution of cell survival” and the “photoreactivity on yeast strains” value (yeast mutant pso2) was “very photoreactive”. For the same compound, the “sensitivity of pso2 mutant compared with wild type” value (yeast mutant pso2; photo-addition) was “same sensitivity as the wild type”, the “photoreactivity compared with 4,5',8-trimethylpsoralen (conclusion)” value [2] was “close to that of 4,5'-8-trimethylpsoralen” and the “activity on cell survival relative to 8-MOP” value ([2]; 5×10^-6 M, survival curves) was 5 times. The “activity compared with 4,5',8-trimethylpsoralen” value ([2]; equimolar 5×10^-6 M) was “activity close to that of 4,5', 8-trimethylpsoralen”, the “photodynamic activity (oxygen dependent)” value [2] was “do not exert on the yeast photodynamic activity” and the “coefficient of molecular absorption at 365 nm” value [13] was “notably a higher coefficient of molecular absorption at 365 nm”. The “mutagenicity compared with 3-carbethoxypsoralen (conclusion)” value [14] was “less mutagenic than 3-carbethoxypsoralen”, the “pigmentogenic properties, 1b versus 1a” value (normal skin) was “superior to those of product 1a; also recorded: more pigmentogenic than product 1a” and the “pigmentation of normal skin” value (normal skin; three normal patients, total UVA doses of 140 J/cm2) was “Visible pigmentation was observed on three normal patients tested with product 1b in all three cases”. The “form of DNA after renaturation (cross-links)” value [7] was “remains in single chain form after renaturation”, the “functional type (mono/bifunctional)” value ([7]; pso2 mutant and direct examination of DNA) was “mono functional type” and the “inhibition capacity (RNA) compared with 3-CPs” value (synthesis of RNA) was “much more than 3-CPs”. For the same compound, the “inhibition capacity (RNA) compared with 8-MOP” value (synthesis of RNA) was “slightly more powerful than 8-MOP”.
